# According to the supplement of paper PMC11061612:
# Legend:
# AZD8186 = compound: C[C@@H](Nc1cc(F)cc(F)c1)c1cc(C(=O)N(C)C)cc2c(=O)cc(N3CCOCC3)oc12 [AZD8186]
# Outline: (§1)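 After 24 hours at 37°C and 5% CO2 in 1536-well plates holding 7.5 μl of DMEM/F12 or RPMI with 10% FBS, cancer cell lines were dosed for 72 hours, with final DMSO typically 0.2%. Viability came from CellTiter-Glo 2.0 luminescence, scaled between the means of blank wells and DMSO wells. A non-linear mixed effects model fitted a two-parameter logistic curve to each dose response to give the single-agent IC50.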
# AZD6738 = compound: C[C@@H]1COCCN1C2=NC(=NC(=C2)C3(CC3)[S@](=N)(=O)C)C4=C5C=CNC5=NC=C4 [AZD6738]; conditions: max 10 µM
# Outline: as §1
# Selumetinib = compound: Cn1cnc2c(F)c(Nc3ccc(Br)cc3Cl)c(C(=O)NOCCO)cc21 [Selumetinib]
# Outline: as §1
# Doxorubicin = compound: COc1cccc2c1C(=O)c1c(O)c3c(c(O)c1C2=O)C[C@@](O)(C(=O)CO)C[C@@H]3O[C@H]1C[C@H](N)[C@H](O)[C@H](C)O1 [Doxorubicin]; conditions: max 1 µM
# Outline: as §1
# Prexasertib = compound: COc1cccc(OCCCN)c1-c1cc(Nc2cnc(C#N)cn2)n[nH]1 [Prexasertib]; conditions: max 1 µM
# Outline: as §1
# AZD1775 = compound: C=CCn1c(=O)c2cnc(Nc3ccc(N4CCN(C)CC4)cc3)nc2n1-c1cccc(C(C)(C)O)n1 [AZD1775]
# Outline: as §1
# AZD5991 = compound: Cc1c2c(nn1C)CSCc1cc(n(C)n1)CSc1cc(c3ccccc3c1)OCCCc1c(C(=O)O)n(C)c3c-2c(Cl)ccc13 [AZD5991]; conditions: max 1 µM
# Outline: as §1
# SN-38 = compound: CCc1c2c(nc3ccc(O)cc13)-c1cc3c(c(=O)n1C2)COC(=O)[C@]3(O)CC [SN-38]; conditions: max 0.3 µM
# Outline: as §1
# Olaparib = compound: O=C(c1cc(Cc2n[nH]c(=O)c3ccccc23)ccc1F)N1CCN(C(=O)C2CC2)CC1 [Olaparib]; conditions: max 10 µM
# Outline: as §1
# AZD0156 = compound: CN(C)CCCOc1ccc(-c2ccc3ncc4c(c3c2)n(C2CCOCC2)c(=O)n4C)cn1 [AZD0156]
# Outline: as §1
# Taselisib = compound: Cc1nc(-c2cn3c(n2)-c2ccc(-c4cnn(C(C)(C)C(N)=O)c4)cc2OCC3)n(C(C)C)n1 [Taselisib]; conditions: max 10 µM
# Outline: as §1
# AZD7648 = compound: Cc1cc2ncnn2cc1Nc1ncc2c(n1)n(C1CCOCC1)c(=O)n2C [AZD7648]; conditions: max 10 µM
# Outline: as §1
# SG3199 = compound: CC1=CN2[C@@H](C1)C=NC3=CC(=C(C=C3C2=O)OC)OCCCCCOC4=C(C=C5C(=C4)N=C[C@@H]6CC(=CN6C5=O)C)OC [SG3199]; conditions: max 0.001 µM
# Outline: as §1
# AZD4320 = compound: CN(CC[C@H](CSC1=CC=CC=C1)NC2=C(C=C(C=C2)S(=O)(=O)NC(=O)C3=CC=C(C=C3)N4CCC(CC4)[C@H](C5=CC=CC=C5C6=CC=C(C=C6)Cl)O)S(=O)(=O)C(F)(F)F)CCO [AZD4320]; conditions: max 1 µM
# Outline: as §1
# Alisertib = compound: COc1cc(Nc2ncc3c(n2)-c2ccc(Cl)cc2C(c2c(F)cccc2OC)=NC3)ccc1C(=O)O [Alisertib]; conditions: max 10 µM
# Outline: as §1
# Trametinib = compound: CC(=O)Nc1cccc(-n2c(=O)n(C3CC3)c(=O)c3c(Nc4ccc(I)cc4F)n(C)c(=O)c(C)c32)c1 [Trametinib]; conditions: max 1 µM
# Outline: as §1
# Capivasertib = compound: C1CN(CCC1(C(=O)N[C@@H](CCO)C2=CC=C(C=C2)Cl)N)C3=NC=NC4=C3C=CN4 [Capivasertib]; conditions: max 3 µM
# Outline: as §1
# Venetoclax = compound: CC1(C)CCC(CN2CCN(c3ccc(C(=O)NS(=O)(=O)c4ccc(NCC5CCOCC5)c([N+](=O)[O-])c4)c(Oc4cnc5[nH]ccc5c4)c3)CC2)=C(c2ccc(Cl)cc2)C1 [Venetoclax]; conditions: max 1 µM
# Outline: as §1
# AZD2811 = compound: CCN(CCO)CCCOc1ccc2c(Nc3cc(CC(=O)Nc4cccc(F)c4)[nH]n3)ncnc2c1 [AZD2811]; conditions: max 1 µM
# Outline: as §1
# Paclitaxel = compound: CC(=O)O[C@H]1C(=O)[C@@]2(C)[C@H]([C@H](OC(=O)c3ccccc3)[C@]3(O)C[C@H](OC(=O)[C@H](O)[C@@H](NC(=O)c4ccccc4)c4ccccc4)C(C)=C1C3(C)C)[C@]1(OC(C)=O)CO[C@@H]1C[C@@H]2O [Paclitaxel]; conditions: max 3 µM
# Outline: as §1
# AZD5363 = compound: C1CN(CCC1(C(=O)N[C@@H](CCO)C2=CC=C(C=C2)Cl)N)C3=NC=NC4=C3C=CN4 [AZD5363]; conditions: max 10 µM
# Outline: as §1
# 5-Fluorouracil = compound: O=c1[nH]cc(F)c(=O)[nH]1 [5-Fluorouracil]; conditions: max 20 µM
# Outline: as §1
# SRA737 = compound: N#Cc1cnc(Nc2cc(NC[C@H]3CNCCO3)c(C(F)(F)F)cn2)cn1 [SRA737]; conditions: max 10 µM
# Outline: as §1
# Gefitinib = compound: COc1cc2ncnc(Nc3ccc(F)c(Cl)c3)c2cc1OCCCN1CCOCC1 [Gefitinib]; conditions: max 10 µM
# Outline: as §1
# Etoposide = compound: COc1cc([C@@H]2c3cc4c(cc3[C@@H](O[C@@H]3O[C@@H]5CO[C@@H](C)O[C@H]5[C@H](O)[C@H]3O)[C@H]3COC(=O)[C@H]23)OCO4)cc(OC)c1O [Etoposide]; conditions: max 10 µM
# Outline: as §1
# Crizotinib = compound: C[C@@H](Oc1cc(-c2cnn(C3CCNCC3)c2)cnc1N)c1c(Cl)ccc(F)c1Cl [Crizotinib]; conditions: max 10 µM
# Outline: as §1
# Savolitinib = compound: C[C@@H](c1ccc2nccn2c1)n1nnc2ncc(-c3cnn(C)c3)nc21 [Savolitinib]; conditions: max 1 µM
# Outline: as §1
# Gemcitabine = compound: Nc1ccn([C@@H]2O[C@H](CO)[C@@H](O)C2(F)F)c(=O)n1 [Gemcitabine]; conditions: max 0.3 µM
# Outline: as §1
# [1] = compound: O=C(Nc1ccc2[nH]nc(-c3ccncc3)c2c1)[C@@H]1CCN(CC(=O)N2CCN(c3ccc(-c4ncccn4)cc3)CC2)C1; conditions: max 5 µM
# Outline: as §1
# MK-2206 = compound: NC1(c2ccc(-c3nc4ccn5c(=O)[nH]nc5c4cc3-c3ccccc3)cc2)CCC1 [MK-2206]; conditions: max 10 µM
# Outline: as §1
# Dasatinib = compound: CC1=C(C(=CC=C1)Cl)NC(=O)C2=CN=C(S2)NC3=CC(=NC(=N3)C)N4CCN(CC4)CCO [Dasatinib]; conditions: max 2 µM
# Outline: as §1
# Carboplatin = compound: C1CC(C1)(C(=O)[O-])C(=O)[O-].N.N.[Pt+2] [Carboplatin]; conditions: max 10 µM
# Outline: as §1
# Lapatinib = compound: CS(=O)(=O)CCNCc1ccc(-c2ccc3ncnc(Nc4ccc(OCc5cccc(F)c5)c(Cl)c4)c3c2)o1 [Lapatinib]; conditions: max 10 µM
# Outline: as §1
# AZD1390 = compound: CC(C)n1c(=O)n(C)c2cnc3cc(F)c(-c4ccc(OCCCN5CCCCC5)nc4)cc3c21 [AZD1390]; conditions: max 0.3 µM
# Outline: as §1
# Palbociclib = compound: CC(=O)c1c(C)c2cnc(Nc3ccc(N4CCNCC4)cn3)nc2n(C2CCCC2)c1=O [Palbociclib]; conditions: max 10 µM
# Outline: as §1
# AZD5153 = compound: COc1nnc2ccc(N3CCC(c4ccc(OCCN5CCN(C)C(=O)[C@H]5C)cc4)CC3)nn12 [AZD5153]; conditions: max 1 µM
# Outline: as §1
Cell Line,"IC50, cell viability 72 h (AZD8186; max 3 µM) [nM]","IC50, cell viability 72 h (AZD6738) [nM]","IC50, cell viability 72 h (Selumetinib; max 3 µM) [µM]","IC50, cell viability 72 h (Doxorubicin) [nM]","IC50, cell viability 72 h (Prexasertib) [nM]","IC50, cell viability 72 h (AZD1775; max 1 µM) [nM]","IC50, cell viability 72 h (AZD5991) [nM]","IC50, cell viability 72 h (SN-38) [nM]","IC50, cell viability 72 h (Olaparib) [µM]","IC50, cell viability 72 h (AZD0156; max 1 µM) [nM]","IC50, cell viability 72 h (Taselisib) [nM]","IC50, cell viability 72 h (AZD7648) [µM]","IC50, cell viability 72 h (SG3199) [nM]","IC50, cell viability 72 h (AZD4320) [nM]","IC50, cell viability 72 h (Alisertib) [nM]","IC50, cell viability 72 h (Trametinib) [nM]","IC50, cell viability 72 h (Capivasertib) [nM]","IC50, cell viability 72 h (Venetoclax) [nM]","IC50, cell viability 72 h (AZD2811) [nM]","IC50, cell viability 72 h (AZD8186; max 10 µM) [nM]","IC50, cell viability 72 h (Paclitaxel) [nM]","IC50, cell viability 72 h (AZD5363) [µM]","IC50, cell viability 72 h (5-Fluorouracil) [µM]","IC50, cell viability 72 h (SRA737) [µM]","IC50, cell viability 72 h (Gefitinib) [µM]","IC50, cell viability 72 h (Selumetinib; max 10 µM) [µM]","IC50, cell viability 72 h (Etoposide) [µM]","IC50, cell viability 72 h (Crizotinib) [µM]","IC50, cell viability 72 h (Savolitinib) [nM]","IC50, cell viability 72 h (Gemcitabine) [nM]","IC50, cell viability 72 h [1] [nM]","IC50, cell viability 72 h (MK-2206) [µM]","IC50, cell viability 72 h (AZD1775; max 3 µM) [nM]","IC50, cell viability 72 h (Dasatinib) [nM]","IC50, cell viability 72 h (AZD0156; max 3 µM) [nM]","IC50, cell viability 72 h (Carboplatin) [µM]","IC50, cell viability 72 h (Lapatinib) [µM]","IC50, cell viability 72 h (AZD1390) [nM]","IC50, cell viability 72 h (Palbociclib) [µM]","IC50, cell viability 72 h (AZD5153) [nM]"
CTB-1 (B-Cell Non-Hodgkin's Lymphoma),> 3000,2010,> 3,248,16.4,388,> 1000,7.48,> 10,> 1000,> 10000,> 10,> 1,> 1000,435,> 1000,> 3000,> 1000,249,,,,,,,,,,,,,,,,,,,,,
RKO (Colorectal Carcinoma),,2040,,240,35.4,,> 1000,16.5,> 10,,2950,> 10,> 1,> 1000,7230,75.3,,> 1000,> 1000,> 10000,3.91,5.24,8.59,7.18,> 10,6.52,6.79,9.5,> 1000,9.84,797,> 10,787,> 2000,> 3000,> 10,> 10,> 300,> 10,67.2
RPMI-6666 (Non-Cancerous),,3900,,58.3,5.81,,731,2.31,> 10,,621,> 10,> 1,37.1,406,> 1000,,174,469,1330,3.63,2.95,3.43,2.46,> 10,> 10,0.401,6.93,> 1000,5.75,> 5000,4.64,234,170,> 3000,> 10,> 10,> 300,8.62,154
RT-112 (Bladder Carcinoma),,4410,,> 1000,31.2,,413,255,> 10,,2950,> 10,> 1,> 1000,2220,305,,> 1000,> 1000,> 10000,9.52,> 10,> 20,> 10,> 10,> 10,> 10,> 10,> 1000,291,3600,> 10,549,> 2000,> 3000,> 10,> 10,> 300,> 10,> 1000
SH-4 (Melanoma),,> 10000,,> 1000,187,,> 1000,> 300,> 10,,> 10000,> 10,> 1,> 1000,> 10000,2.59,,> 1000,> 1000,> 10000,2550,> 10,> 20,> 10,> 10,0.259,> 10,> 10,> 1000,> 300,111,> 10,1490,> 2000,> 3000,> 10,> 10,> 300,> 10,432
SIMA (Neuroblastoma),> 3000,2350,> 3,706,7.67,,> 1000,3.66,> 10,,,> 10,> 1,299,,,> 3000,> 1000,> 1000,,,,,,,,,,,,,,211,,> 3000,,,,,
